Measured values reported in patent US9796719B2, “Compounds and pharmaceutical compositions thereof for the treatment of inflammatory disorders” (GALAPAGOS NV, priority 2013, dated 2017).

Experiments:
hENPP2 [1] = target: T1, hENPP2 (UniProtKB/SwissProt Sequence ref Q13822) (Homo sapiens (Human), UniProt Q13822); assay: FS3 hENPP2 assay (fluorogenic substrate FS-3); format: biochemical; settings: hENPP2, FS-3 as substrate
In short: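 Compound dilutions (1/5 steps, top concentration as added 20 μM) were preincubated 30 min at room temperature with hENPP2 (0.4 or 0.64 μg/mL final) in pH 8.0 Tris buffer containing NaCl, KCl, MgCl2, CaCl2 and 0.1% fatty-acid-free BSA. FS-3 (0.75 μM as added) was then hydrolysed for 30 min at 30 °C, and fluorescence was read at 485/520 nm.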

hENPP2 [2] = target: T1, hENPP2; assay: LPC hENPP2 assay (choline release, LPC as substrate); format: biochemical
In short: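 Detection is coupled: choline oxidase produces peroxide, which HRP uses to form quinoneimine dye from TOOS and 4-aminoantipyrine, read at 555 nm. The reaction is stopped with 20 mM EGTA in the developer mix, then incubated 30 min at room temperature; inhibition lowers signal.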

CCc1nc2ccc(N3CCN(CC(=O)N4CCCC4CO)CC3)nn2c1N(C)c1nc(-c2ccc(F)cc2)cs1 (stereo not drawn) [Cpd 29]
IC50 (hENPP2 [1]): 0.01 to 25 nM | IC50 (hENPP2 [2]): 100 to 500 nM

CCc1nc2ccc(N3CCC(C(N)=O)CC3)nn2c1N(C)c1nc(-c2ccc(F)cc2)cs1 [Cpd 98, 1-(2-ethyl-3-((4-(4-fluorophenyl)thiazol-2-yl)(methyl)amino)imidazo[1,2-b]pyridazin-6-yl)piperidine-4-carboxamide]
IC50 (hENPP2 [1]): 0.01 to 25 nM | IC50 (hENPP2 [2]): > 1000 nM

CCc1nc2ccc(N3CCN(S(C)(=O)=O)C(CCO)C3)nn2c1N(C)c1nc(-c2ccc(F)cc2)cs1 (stereo not drawn) [Cpd 72, 2-(4-(2-ethyl-3-((4-(4-fluorophenyl)thiazol-2-yl)(methyl)amino)imidazo[1,2-b]pyridazin-6-yl)-1-(methylsulfonyl)piperazin-2-yl) ethanol]
IC50 (hENPP2 [1]): 0.01 to 25 nM | IC50 (hENPP2 [2]): 500 to 1000 nM

CCc1nc2cnc(N3CCN(CC(=O)N4CCCC4)CC3)cn2c1N(C)c1nc(-c2ccc(F)cc2)c(C#N)s1 [Cpd 8, 2-((2-ethyl-6-(4-(2-oxo-2-(pyrrolidin-1-yl)ethyl)piperazin-1-yl)imidazo[1,2-a]pyrazin-3-yl)(methyl)amino)-4-(4-fluorophenyl) thiazole-5-carbonitrile]
IC50 (hENPP2 [1]): 0.01 to 25 nM | IC50 (hENPP2 [2]): 100 to 500 nM

CCc1nc2ccc(N3CCC(NS(C)(=O)=O)C3)nn2c1N(C)c1nc(-c2ccc(F)cc2)cs1 (stereo not drawn) [Cpd 137, N-(1-(2-ethyl-3-((4-(4-fluorophenyl)thiazol-2-yl)(methyl)amino)imidazo[1,2-b]pyridazin-6-yl)pyrrolidin-3-yl)methane-sulfonamide]
IC50 (hENPP2 [1]): 0.01 to 25 nM | IC50 (hENPP2 [2]): > 1000 nM

CCc1nc2ccc(N3CCC(CO)CC3)nn2c1N(C)c1nc(-c2ccc(F)cc2)cs1 [Cpd 93, (1-(2-ethyl-3-((4-(4-fluorophenyl)thiazol-2-yl)(methyl)amino)imidazo[1,2-b]pyridazin-6-yl)piperidin-4-yl)methanol]
IC50 (hENPP2 [1]): 0.01 to 25 nM | IC50 (hENPP2 [2]): > 1000 nM

CCc1nc2ccc(N3CCC(N4CCCCC4)C3)nn2c1N(C)c1nc(-c2ccc(F)cc2)cs1 (stereo not drawn) [Cpd 151, N-(2-ethyl-6-(3-(piperidin-1-yl)pyrrolidin-1-yl)imidazo[1,2-b]pyridazin-3-yl)-4-(4-fluorophenyl)-N-methylthiazol-2-amine]
IC50 (hENPP2 [1]): 0.01 to 25 nM | IC50 (hENPP2 [2]): > 1000 nM

CCc1nc2ccc(N3CCN(CC(=O)N4CC(O)C4)CC3)nn2c1N(C)c1nc(-c2ccc(F)cc2)cs1 [Cpd 26]
IC50 (hENPP2 [1]): 0.01 to 25 nM | IC50 (hENPP2 [2]): 100 to 500 nM

CCc1nc2ccc(C3=CCN(S(C)(=O)=O)CC3)nn2c1N(C)c1nc(-c2ccc(F)cc2)cs1 [Cpd 194, N-(2-ethyl-6-(1-(methylsulfonyl)-1,2,3,6-tetrahydropyridin-4-yl)imidazo[1,2-b]pyridazin-3-yl)-4-(4-fluorophenyl)-N-methylthiazol-2-amine]
IC50 (hENPP2 [1]): 0.01 to 25 nM | IC50 (hENPP2 [2]): > 1000 nM

CCc1nc2cnc(N3CCN(CC(=O)N4CCC4)CC3)cn2c1N(C)c1nc(-c2ccc(F)cc2)c(C#N)s1 [Cpd 4, 2-((6-(4-(2-(azetidin-1-yl)-2-oxoethyl)piperazin-1-yl)-2-ethylimidazo[1,2-a]pyrazin-3-yl)(methyl)amino)-4-(4-fluorophenyl) thiazole-5-carbonitrile]
IC50 (hENPP2 [1]): 0.01 to 25 nM | IC50 (hENPP2 [2]): 100 to 500 nM

CCc1nc2ccc(C3CCN(CC(=O)N4CC(O)C4)CC3)nn2c1N(C)c1nc(-c2ccc(F)cc2)ccc1C#N [Cpd 217, 2-((2-ethyl-6-(1-(2-(3-hydroxyazetidin-1-yl)-2-oxoethyl)piperidin-4-yl)imidazo[1,2-b]pyridazin-3-yl)(methyl)amino)-6-(4-fluorophenyl) nicotinonitrile]
IC50 (hENPP2 [1]): 50 to 100 nM | IC50 (hENPP2 [2]): > 1000 nM

CCc1nc2cnc(N3CCN(CC(=O)N4CC(F)C4)CC3)cn2c1N(C)c1nc(-c2ccc(F)cc2)c(C#N)s1 [Cpd 11, 2-((2-ethyl-6-(4-(2-(3-fluoroazetidin-1-yl)-2-oxoethyl)piperazin-1-yl)imidazo[1,2-a]pyrazin-3-yl)(methyl)amino)-4-(4-fluorophenyl) thiazole-5-carbonitrile]
IC50 (hENPP2 [1]): 0.01 to 25 nM | IC50 (hENPP2 [2]): 100 to 500 nM

CCc1nc2ccc(N3CCCC(CNS(C)(=O)=O)C3)nn2c1N(C)c1nc(-c2ccc(F)cc2)cs1 (stereo not drawn) [Cpd 102, N-((1-(2-ethyl-3-((4-(4-fluorophenyl)thiazol-2-yl)(methyl)amino)imidazo[1,2-b]pyridazin-6-yl)piperidin-3-yl)methyl) methanesulfonamide]
IC50 (hENPP2 [1]): 0.01 to 25 nM | IC50 (hENPP2 [2]): > 1000 nM

CCc1nc2ccc(N3CCN(CCNC(C)=O)CC3)nn2c1N(C)c1nc(-c2ccc(F)cc2)cs1 [Cpd 57, N-(2-(4-(2-ethyl-3-((4-(4-fluorophenyl)thiazol-2-yl)(methyl)amino)imidazo[1,2-b]pyridazin-6-yl)piperazin-1-yl)ethyl)acetamide]
IC50 (hENPP2 [1]): 0.01 to 25 nM | IC50 (hENPP2 [2]): 100 to 500 nM

CN(c1nc(-c2ccc(F)cc2)cs1)c1c(CO)nc2ccc(C3=CCN(S(C)(=O)=O)CC3)nn12 [Compound 195, (3-((4-(4-fluorophenyl)thiazol-2-yl)(methyl)amino)-6-(1-(methylsulfonyl)-1,2,3,6-tetrahydropyridin-4-yl)imidazo[1,2-b]pyridazin-2-yl)methanol]
IC50 (hENPP2 [1]): 0.01 to 25 nM | IC50 (hENPP2 [2]): > 1000 nM

CCc1nc2ccc(N3CCN(CC(=O)N4CCOCC4)[C@H](CO)C3)nn2c1N(C)c1nc(-c2ccc(F)cc2)cs1 [Cpd 65, (S)-2-(4-(2-ethyl-3-((4-(4-fluorophenyl)thiazol-2-yl)(methyl)amino)imidazo[1,2-b]pyridazin-6-yl)-2-(hydroxymethyl)piperazin-1-yl)-1-morpholinoethanone]
IC50 (hENPP2 [1]): 0.01 to 25 nM | IC50 (hENPP2 [2]): 100 to 500 nM

CCc1nc2ccc(C3CCN(CC(=O)N4CC(O)C4)CC3)nn2c1N(C)c1nc(-c2ccc(F)cc2)c(C#N)s1 [Cpd 212, 2-((2-ethyl-6-(1-(2-(3-hydroxyazetidin-1-yl)-2-oxoethyl)piperidin-4-yl)imidazo[1,2-b]pyridazin-3-yl)(methyl)amino)-4-(4-fluorophenyl) thiazole-5-carbonitrile]
IC50 (hENPP2 [1]): 0.01 to 25 nM | IC50 (hENPP2 [2]): 0.01 to 100 nM

CN(c1nc(-c2ccc(F)cc2)c(C(=O)C(F)(F)F)s1)c1c(CCC#N)nc2ccc(C3CCN(S(C)(=O)=O)CC3)nn12 [Compound 199, 3-(3-((4-(4-fluorophenyl)-5-(2,2,2-trifluoroacetoyl)thiazol-2-yl)(methyl)amino)-6-(1-(methylsulfonyl)piperidin-4-yl)imidazo[1,2-b]pyridazin-2-yl)propanenitrile]
IC50 (hENPP2 [1]): 0.01 to 25 nM | IC50 (hENPP2 [2]): > 1000 nM
